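1) Cells in 96-well plates. 2) Compound, 48 h, 5 concentrations. 3) Linear interpolation between surrounding doses. 4) Unreached endpoint = highest concentration. GI50 = concentration required for 50% inhibition of growth. TGI marks complete inhibition of growth.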
Legend:
Test in all cases: NCI tumour cell line growth inhibition, 48 h
[1] = test system: HCT-15 colon
[2] = test system: HT29 colon
[3] = test system: SNB-19 CNS
[4] = test system: A549 NSCLC
[5] = test system: ACHN renal
[6] = test system: SF-295 CNS
[7] = test system: NCI-H226 lung
[8] = test system: MDA-MB-231 breast
[9] = test system: NCI/ADR-RES ovarian
[10] = test system: CCRF-CEM leukemia
[11] = test system: UACC-62 melanoma
[12] = test system: K-562 leukemia
[13] = test system: UACC-257 melanoma
[14] = test system: SF-268 CNS
[15] = test system: LOX IMVI melanoma
[16] = test system: T-47D breast
[17] = test system: NCI-H522 lung
[18] = test system: UO-31 renal
[19] = test system: HCC-2998 colon
[20] = test system: U251 CNS
[21] = test system: SN12C renal
[22] = test system: SNB-75 CNS
[23] = test system: RXF 393 renal
[24] = test system: COLO 205 colon
[25] = test system: IGROV1 ovarian
[26] = test system: DU-145 prostate
[27] = test system: OVCAR-3 ovarian
[28] = test system: OVCAR-5 ovarian
[29] = test system: SW-620 colon
[30] = test system: HOP-62 NSCLC
[31] = test system: M14 melanoma
[32] = test system: RPMI-8226 leukemia
[33] = test system: SF-539 CNS
[34] = test system: HL-60(TB) leukemia
[35] = test system: SK-OV-3 ovarian
[36] = test system: CAKI-1 renal
[37] = test system: TK-10 renal
[38] = test system: SK-MEL-2 melanoma
[39] = test system: MDA-MB-435
[40] = test system: MALME-3M melanoma
[41] = test system: SK-MEL-5 melanoma
[42] = test system: NCI-H460 lung
[43] = test system: HS 578T breast
[44] = test system: PC-3 prostate
[45] = test system: OVCAR-8 ovarian
[46] = test system: 786-0 renal
[47] = test system: MCF7 breast
[48] = test system: OVCAR-4 ovarian
[49] = test system: A498 renal
[50] = test system: EKVX NSCLC
[51] = test system: SR leukemia
[52] = test system: KM12 colon
[53] = test system: MOLT-4 leukemia
[54] = test system: SK-MEL-28 melanoma
[55] = test system: HCT-116 colon
[56] = test system: BT-549 breast
[57] = test system: NCI-H23 lung

**Q.** Which results are given for `COc1ccc2c(c1)CC[C@@H]1[C@@H]2CC[C@]2(C)C(c3ccsc3)=C(/C=C/C(=O)c3ccccc3)C[C@@H]12`?
**A.** GI50 [1]: > 100 µM; TGI [1]: > 100 µM; GI50 [2]: > 100 µM; TGI [2]: > 100 µM; GI50 [3]: > 100 µM; TGI [3]: > 100 µM; GI50 [4]: > 100 µM; TGI [4]: > 100 µM; GI50 [5]: > 100 µM; TGI [5]: > 100 µM; GI50 [6]: > 100 µM; TGI [6]: > 100 µM; GI50 [7]: > 100 µM; TGI [7]: > 100 µM; GI50 [8]: > 100 µM; TGI [8]: > 100 µM; GI50 [9]: > 100 µM; TGI [9]: > 100 µM; GI50 [10]: > 100 µM; TGI [10]: > 100 µM; GI50 [11]: > 100 µM; TGI [11]: > 100 µM; GI50 [12]: > 100 µM; TGI [12]: > 100 µM; GI50 [13]: > 100 µM; TGI [13]: > 100 µM; GI50 [14]: > 100 µM; TGI [14]: > 100 µM; GI50 [15]: > 100 µM; TGI [15]: > 100 µM; GI50 [16]: > 100 µM; TGI [16]: > 100 µM; GI50 [17]: > 100 µM; TGI [17]: > 100 µM; GI50 [18]: > 100 µM; TGI [18]: > 100 µM; GI50 [19]: 67.4 µM; TGI [19]: > 100 µM; GI50 [20]: > 100 µM; TGI [20]: > 100 µM; GI50 [21]: > 100 µM; TGI [21]: > 100 µM; GI50 [22]: > 100 µM; TGI [22]: > 100 µM; GI50 [23]: > 100 µM; TGI [23]: > 100 µM; GI50 [24]: > 100 µM; TGI [24]: > 100 µM; GI50 [25]: > 100 µM; TGI [25]: > 100 µM; GI50 [26]: > 100 µM; TGI [26]: > 100 µM; GI50 [27]: > 100 µM; TGI [27]: > 100 µM; GI50 [28]: > 100 µM; TGI [28]: > 100 µM; GI50 [29]: > 100 µM; TGI [29]: > 100 µM; GI50 [30]: > 100 µM; TGI [30]: > 100 µM; GI50 [31]: > 100 µM; TGI [31]: > 100 µM; GI50 [32]: 50.3 µM; TGI [32]: > 100 µM; GI50 [33]: > 100 µM; TGI [33]: > 100 µM; GI50 [34]: 13.4 µM; TGI [34]: > 100 µM; GI50 [35]: > 100 µM; TGI [35]: > 100 µM; GI50 [36]: > 100 µM; TGI [36]: > 100 µM; GI50 [37]: > 100 µM; TGI [37]: > 100 µM; GI50 [38]: > 100 µM; TGI [38]: > 100 µM; GI50 [39]: > 100 µM; TGI [39]: > 100 µM; GI50 [40]: > 100 µM; TGI [40]: > 100 µM; GI50 [41]: > 100 µM; TGI [41]: > 100 µM; GI50 [42]: > 100 µM; TGI [42]: > 100 µM; GI50 [43]: > 100 µM; TGI [43]: > 100 µM; GI50 [44]: 39 µM; TGI [44]: > 100 µM; GI50 [45]: > 100 µM; TGI [45]: > 100 µM; GI50 [46]: > 100 µM; TGI [46]: > 100 µM; GI50 [47]: > 100 µM; TGI [47]: > 100 µM; GI50 [48]: > 100 µM; TGI [48]: > 100 µM; GI50 [49]: > 100 µM; TGI [49]: > 100 µM; GI50 [50]: > 100 µM; TGI [50]: > 100 µM; GI50 [51]: 19.9 µM; TGI [51]: > 100 µM; GI50 [52]: > 100 µM; TGI [52]: > 100 µM; GI50 [53]: 2.67 µM; TGI [53]: > 100 µM; GI50 [54]: > 100 µM; TGI [54]: > 100 µM; GI50 [55]: > 100 µM; TGI [55]: > 100 µM; GI50 [56]: > 100 µM; TGI [56]: > 100 µM; GI50 [57]: > 100 µM; TGI [57]: > 100 µM

From PubChem BioAssay (NCI)
